# Measured values as given in patent US20240115496A1, “A COMPOUND DRY POWDER INHALANT AND USE THEREOF” (TIANJIN UNIVERSITY OF TRADITIONAL CHINESE MEDICINE, priority 2021, published 2024).
# Experiments:
# [1] = In vivo pharmacokinetics, lung tissue homogenate (UPLC-MS/MS); design: species or system rat; details: for CL/F (clearance) / Cmax / Tmax / half-life / MRT last: BA in rat lung tissue; for concentration at 2 min / concentration at 4 min / concentration at 10 min / concentration at 15 min / concentration at 30 min / concentration at 60 min / concentration at 120 min / concentration at 240 min / concentration at 360 min / Cmax / Tmax / half-life / MRT last: male, Sprague-Dawley (SD); for concentration at 2 min / concentration at 4 min / concentration at 10 min / concentration at 15 min / concentration at 30 min / concentration at 60 min / concentration at 120 min / concentration at 240 min / concentration at 360 min: rat lung tissue homogenate, read-out: Drug concentration of BA in lung tissue; for Cmax / Tmax / half-life / MRT last: lung tissue (homogenate supernatant); for half-life: read-out: HLz (biological half-life) (converted); for MRT last: read-out: MRTlast (mean retention time)
# Method: (§1) SPF-grade healthy SD male rats, body weight 180-220 g, purchased from SPF (Beijing) Biotechnology Co., Ltd (Certificate No. SCXK (Beijing) 2019-0010), were conventionally reared under (23±2)° C., humidity: (50±10)%. This study was conducted with the approval of the Animal Experiment Center of Tianjin University of Traditional Chinese Medicine.
# (§2) 108 SPF-grade SD male rats were randomly divided into tail intravenous injection group and pulmonary administration group, with 9 time points of 2 min, 4 min, 10 min, 15 min, 30 min, 1 h, 2 h, 4 h and 6 h per group, 6 rats per time point per group. The rats were fasted for 12 h before the experiment, with water provided. The rats were weighed (to calculate the dose) and numbered, and both groups were intraperitoneally injected with 10% chloral hydrate at a dose of 2 mL/kg. Group 1 was administered BA/AH-DPI saline solution by tail intravenous injection at a dose of 9 mg/kg. Group 2 was administered 3 mg of BA/AH-DPI fine powder at the same dose by spray administration with a DP-4 tracheal insufflator (1.5 mL of air was pushed each time, 3-4 times consecutively). Blood was sampled from the abdominal aorta of the rats in both groups at the above time points after drug administration, and the rats were executed. The obtained whole blood was placed in a centrifuge tube with sodium heparin, centrifuged at 4000 r/min for 10 min, and the upper layer of plasma was separated and stored a refrigerator at −80° C. After blood collection, the thoracic cavity was quickly opened and the lungs of the rats were isolated. The small amount of floating blood on the surface of the lung tissue was washed with saline in an ice bath. The surface of the lung tissue was blotted with filter paper. The trachea was cut off, wrapped in tin foil and placed in a 10 mL centrifuge tube. The lung was weighed precisely, and stored in a refrigerator at −80° C.
# The lung tissues were added to saline in a weight to volume ratio of 1:4 (g:mL). A homogenate was obtained by beating, dispersing and evenly grinding with a homogenizer under an ice water bath, and centrifuged at 6500 r/min for 20 min to obtain the supernatant of the lung tissue homogenate.
# (§3) 100 μL of the plasma sample or lung tissue supernatant was precisely absorbed, and 200 μL (100 ng/mL) of methanol solution containing the internal standard was added. The mixture was vortexed and mixed for 3 min, and centrifuged at 12000 r/min for 10 min to obtain the supernatant as the finished sample. The contents of BA and AH were determined by UPLC-MS/MS method.
# (§4) Electrospray ion source (ESI source); scan mode: positive (ESI+) detection; detection mode: multi-reactive ion monitoring (MRM). Electrospray voltage: 4 kV; atomization gas: N2; spray gas flow rate (Gas1): 15 psi; ion source temperature: 300° C.
# (§5) Meaning of pharmacokinetic parameters: HLz was the biological half-life, i.e., the time required for the amount or blood concentration of the drug in the body to decrease by half; Tmax was the time to peak, i.e., the time required to reach the peak concentration of the drug after administration. Cmax was the peak drug concentration, i.e., the highest blood concentration that occurred after administration of the drug. AUC was the area enclosed by the blood drug concentration curve against the time axis. Vz/F was the apparent volume of distribution, the ratio constant of the amount of drug in the body to the blood concentration when the drug reached dynamic equilibrium in the body. CL/F was the clearance, i.e., the number of apparent volume of distribution of the drug removed from the body per unit time. AUMC was the first order moment of the drug-time curve, i.e. the area under the curse of the product of time and blood concentration versus time. MRTlast was the mean retention time, i.e., the average of the residence time of drug molecules in the body.
# [2] = In vivo pharmacokinetics, plasma (UPLC-MS/MS); design: species or system rat; details: for half-life: read-out: HLz (biological half-life) (converted); for MRT last: read-out: MRTlast (mean retention time); for concentration at 2 min / concentration at 10 min / concentration at 15 min / concentration at 30 min / concentration at 60 min / concentration at 120 min / concentration at 240 min / concentration at 360 min / concentration at 4 min: read-out: Blood concentration of BA; for concentration at 4 min: Sprague-Dawley (SD)
# Method: as §1, §2, §3, §4, §5
# [3] = Particle size distribution test, laser particle size analyzer, dry dispersion; assay type: physicochemical
# Method: The particle size distribution of DPI dry powder was measured by dry dispersion method using laser particle size analyzer, and Dv10, Dv50, Dv90, VMD (Volume median diameter) and SMD (Sauter mean diameter) were determined, respectively.
# [4] = tail intravenous injection group, 9 mg/kg
# [5] = inhaled, pulmonary administration BA/AH-DPI 9 mg/kg
# [6] = inhaled or intranasal, pulmonary administration group, BA/AH-DPI 9 mg/kg
# [7] = tail intravenous injection BA/AH-DPI saline solution 9 mg/kg
# [8] = male, SD, inhaled or intranasal, BA in rat plasma, pulmonary administration group, BA/AH-DPI 9 mg/kg
# [9] = male, SD, inhaled, rat plasma, pulmonary administration BA/AH-DPI 9 mg/kg
# [10] = male, SD, BA in rat plasma, tail intravenous injection group, 9 mg/kg
# [11] = male, SD, rat plasma, tail intravenous injection BA/AH-DPI saline solution 9 mg/kg
smiles,measurement,setting,value
"O=C(O)[C@H]1O[C@@H](Oc2cc3oc(-c4ccccc4)cc(=O)c3c(O)c2O)[C@H](O)[C@@H](O)[C@@H]1O [BA, baicalin]",CL/F (clearance),"[1]; pulmonary administration group, BA/AH-DPI 9 mg/kg",800.14 ± 131.95 g/h/kg
same,CL/F (clearance),[1]; [4],29086.90 ± 13876.33 g/h/kg
same,concentration at 2 min,[1]; [5],6440 ± 1200 ng/mL
same,concentration at 4 min,[1]; [5],4960 ± 1130 ng/mL
same,concentration at 10 min,[1]; [5],3190 ± 524 ng/mL
same,concentration at 15 min,[1]; [5],1820 ± 346 ng/mL
same,concentration at 30 min,[1]; [5],1420 ± 469 ng/mL
same,concentration at 60 min,[1]; [5],705 ± 160 ng/mL
same,concentration at 120 min,[1]; [5],235 ± 76.2 ng/mL
same,concentration at 240 min,[1]; [5],92.2 ± 25.4 ng/mL
same,concentration at 360 min,[1]; [5],43.1 ± 16.9 ng/mL
same,Cmax,[1]; [6],26000 ± 4490 ng/g
same,Tmax,[1]; [6],2.64 ± 1.08 min
same,half-life,[1]; [6],84 ± 24 min
same,MRT last,[1]; [6],57 ± 5.22 min
same,Cmax,[1]; [4],341 ± 112 ng/g
same,Tmax,[1]; [4],1.98 min
same,half-life,[1]; [4],101 ± 44.4 min
same,MRT last,[1]; [4],91.2 ± 36 min
same,concentration at 2 min,[1]; [7],85.3 ± 27.9 ng/mL
same,concentration at 4 min,[1]; [7],42 ± 7.67 ng/mL
same,concentration at 10 min,[1]; [7],45.1 ± 13.6 ng/mL
same,concentration at 15 min,[1]; [7],45.8 ± 18.7 ng/mL
same,concentration at 30 min,[1]; [7],39.2 ± 22 ng/mL
same,concentration at 60 min,[1]; [7],16.3 ± 19.5 ng/mL
same,concentration at 120 min,[1]; [7],12.9 ± 10.5 ng/mL
same,concentration at 240 min,[1]; [7],8.37 ± 6.37 ng/mL
same,concentration at 360 min,[1]; [7],2.71 ± 3.37 ng/mL
same,CL/F (clearance),"[2]; BA in rat plasma, tail intravenous injection group, 9 mg/kg",98.4805 ± 62.0535 mL/min/kg
same,Cmax,[2]; [8],2560 ± 351 ng/mL
same,Tmax,[2]; [8],9 ± 4.2 min
same,CL/F,"[2]; male, SD, inhaled or intranasal, BA in rat plasma, pulmonary administration group, BA/AH-DPI 9 mg/kg, read-out: CL/F (clearance) (converted)",121 mL/min/kg
same,half-life,[2]; [8],121 ± 38.4 min
same,MRT last,[2]; [8],45 ± 5.52 min
same,Vd/F,"[2]; male, SD, inhaled or intranasal, BA in rat plasma, pulmonary administration group, BA/AH-DPI 9 mg/kg, read-out: Vz/F (apparent volume of distribution)",20.9 ± 6.57 L/kg
same,bioavailability,"[2]; male, SD, inhaled, rat plasma, pulmonary administration of BA/AH-DPI vs tail intravenous injection, 9 mg/kg, read-out: Absolute bioavailability",60.7%
same,concentration at 2 min,[2]; [9],690 ± 438 ng/mL
same,concentration at 10 min,[2]; [9],2320 ± 421 ng/mL
same,concentration at 15 min,[2]; [9],1470 ± 588 ng/mL
same,concentration at 30 min,[2]; [9],628 ± 95.9 ng/mL
same,concentration at 60 min,[2]; [9],289 ± 110 ng/mL
same,concentration at 120 min,[2]; [9],57.2 ± 14.2 ng/mL
same,concentration at 240 min,[2]; [9],27.4 ± 10.9 ng/mL
same,concentration at 360 min,[2]; [9],13.4 ± 3.68 ng/mL
same,Cmax,[2]; [10],11800 ± 6050 ng/mL
same,Tmax,[2]; [10],2.28 ± 0.6 min
same,half-life,[2]; [10],48.6 ± 36 min
same,MRT last,[2]; [10],14.4 ± 9.6 min
same,concentration at 2 min,[2]; [11],11700 ± 6170 ng/mL
same,concentration at 10 min,[2]; [11],933 ± 401 ng/mL
same,concentration at 15 min,[2]; [11],693 ± 284 ng/mL
same,concentration at 30 min,[2]; [11],338 ± 70.3 ng/mL
same,concentration at 60 min,[2]; [11],77 ± 46.1 ng/mL
same,concentration at 120 min,[2]; [11],53.7 ± 54.2 ng/mL
same,concentration at 240 min,[2]; [11],8.68 ± 8.46 ng/mL
same,concentration at 360 min,[2]; [11],2.64 ± 5.27 ng/mL
same,concentration at 4 min,"[2]; male, inhaled, rat plasma, pulmonary administration BA/AH-DPI 9 mg/kg",1740 ± 962 ng/mL
same,concentration at 4 min,"[2]; male, rat plasma, tail intravenous injection BA/AH-DPI saline solution 9 mg/kg",3060 ± 861 ng/mL
same,Time of maximum blood concentration in plasma,"[2]; rat, pulmonary administration of BA/AH-DPI 9 mg/kg",around 9 min
same,D10,[3],0.88 μm
same,D50,[3],5.18 μm
same,D90,[3],12.61 μm
same,SMD (Sauter mean diameter),[3],2.23 μm
same,VMD (Volume median diameter),[3],6.05 μm
same,<3 μm,[3]; fraction of particles,31.81%
same,<5 μm,[3]; fraction of particles,48.66%
